Bounds are passed on as bounds.

The text below walks through data of patent US8530489B2 (Vertex Pharmaceuticals Incorporated, priority 2006, dated 2013).

The target of this experiment is PLK1 (Homo sapiens, UniProt P53350). Nature of the experiment: PLK1 Inhibition Assay I (radioactive-phosphate incorporation). Format: biochemical. To be noted: Ki(app); PLK1 Inhibition Assay I or II (table does not say which). How it is done: The compounds of the present invention are evaluated as inhibitors of human PLK kinase using the following assays.
Sequence of PLK1 (P53350 whole entry): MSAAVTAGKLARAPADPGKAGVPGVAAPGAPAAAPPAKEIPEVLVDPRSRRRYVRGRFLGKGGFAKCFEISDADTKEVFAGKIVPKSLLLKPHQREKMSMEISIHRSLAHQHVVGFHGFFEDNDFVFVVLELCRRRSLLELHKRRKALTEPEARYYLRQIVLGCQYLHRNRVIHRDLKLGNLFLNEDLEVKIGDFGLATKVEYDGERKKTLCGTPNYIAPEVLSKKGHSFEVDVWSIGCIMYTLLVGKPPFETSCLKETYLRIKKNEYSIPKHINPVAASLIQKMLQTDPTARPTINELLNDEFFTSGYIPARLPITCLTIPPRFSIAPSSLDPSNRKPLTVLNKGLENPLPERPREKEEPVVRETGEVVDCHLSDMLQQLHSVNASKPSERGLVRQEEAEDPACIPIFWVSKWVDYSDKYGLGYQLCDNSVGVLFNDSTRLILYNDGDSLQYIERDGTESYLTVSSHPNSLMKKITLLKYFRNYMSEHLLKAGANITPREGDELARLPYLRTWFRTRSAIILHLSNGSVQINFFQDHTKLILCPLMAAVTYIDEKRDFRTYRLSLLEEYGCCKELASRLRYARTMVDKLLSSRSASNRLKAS
Compounds were screened for their ability to inhibit PLK1 using a radioactive-phosphate incorporation assay. Assays were carried out in a mixture of 25 mM HEPES (pH 7.5), 10 mM MgCl2, and 1 mM DTT. Final substrate concentrations were 350 μM [γ-33P]ATP (136 mCi 33P ATP/mmol ATP, Amersham Pharmacia Biotech/Sigma Chemicals) and 450 μM peptide (KKKISDELMDATFADQEAK) [SEQ. ID:1]. Assays were carried out at 25° C. in the presence of 2 nM PLK1. An assay stock buffer solution was prepared containing all of the reagents listed above, with the exception of ATP and the test compound of interest. 30 μL of the stock solution was placed in a 96 well plate followed by addition of 2 μL of DMSO stock containing serial dilutions of the test compound (typically starting from a final concentration of 10 μM with 2-fold serial dilutions) in duplicate (final DMSO concentration 5%). The plate was pre-incubated for 10 minutes at 25° C. and the reaction initiated by addition of 8 μL [γ-33P]ATP (final concentration 350 μM).
The reaction was stopped after 240 minutes by the addition of 100 μL 0.14M phosphoric acid. A multiscreen phosphocellulose filter 96-well plate (Millipore, Cat No. MAPHN0B50) was pretreated with 100 μL 0.1 M phosphoric acid prior to the addition of 125 μL of the stopped assay mixture. The plate was washed with 4×200 μL 0.1 M phosphoric acid. After drying, 100 μL Optiphase ‘SuperMix’ liquid scintillation cocktail (Perkin Elmer) was added to the well prior to scintillation counting (1450 Microbeta Liquid Scintillation Counter, Wallac).
After removing mean background values for all of the data points, Ki(app) data were calculated from non-linear regression analysis of the initial rate data using the Prism software package (GraphPad Prism version 3.0cx for Macintosh, GraphPad Software, San Diego Calif., USA).
As to `N#Cc1cnc(NC(CCO)C2CC2)nc1-c1c[nH]c2ncc(C(F)(F)F)cc12` (centres unmarked) [Compound I-106, 2-(1-cyclopropyl-3-hydroxypropylamino)-4-(5-(trifluoromethyl)-1H-pyrrolo[2,3-b]pyridin-3-yl)pyrimidine-5-carbonitrile], the Ki was in the range of 3 to 40 nM.

Consider `C[C@@H](Nc1ncc(C#N)c(-c2c[nH]c3ncc(C(F)(F)F)cc23)n1)c1ccc(N2CC[C@H](N3CCCC3)C2)nc1` [Compound I-288, 2-((R)-1-(6-((S)-1,3′-bipyrrolidin-1′-yl)pyridin-3-yl)ethylamino)-4-(5-(trifluoromethyl)-1H-pyrrolo[2,3-b]pyridin-3-yl)pyrimidine-5-carbonitrile], for which the Ki lay within 3 to 40 nM.

In the case of `CC(Nc1ncc(C#N)c(-c2c[nH]c3ncc(C(F)(F)F)cc23)n1)c1ccc(N2CCC(O)CC2)nc1` (centres unmarked) [Compound I-162, 2-(1-(6-(4-hydroxypiperidin-1-yl)pyridin-3-yl)ethylamino)-4-(5-(trifluoromethyl)-1H-pyrrolo[2,3-b]pyridin-3-yl)pyrimidine-5-carbonitrile], the Ki is less than 3 nM.

For the compound `CCC(Nc1ncc(C#N)c(-c2c[nH]c3ncc(C(F)(F)F)cc23)n1)C1CCN(S(=O)(=O)C(C)C)CC1` (centres unmarked) [Compound I-182, 2-(1-(1-(isopropylsulfonyl)piperidin-4-yl)propylamino)-4-(5-(trifluoromethyl)-1H-pyrrolo[2,3-b]pyridin-3-yl)pyrimidine-5-carbonitrile], the Ki fell in the range of 3 to 40 nM.

Take `C[C@@H](Nc1ncc(C#N)c(-c2c[nH]c3ncc(C(F)(F)F)cc23)n1)C1CCN(CCO)CC1` [Compound I-215, 2-((R)-1-(1-(2-hydroxyethyl)piperidin-4-yl)ethylamino)-4-(5-(trifluoromethyl)-1H-pyrrolo[2,3-b]pyridin-3-yl)pyrimidine-5-carbonitrile]: the Ki was less than 3 nM.

On to `N#Cc1cnc(NC2(C(=O)NCC(F)(F)F)CCCCC2)nc1-c1c[nH]c2ncc(Cl)cc12` [IA-3, 1-(4-(5-chloro-1H-pyrrolo[2,3-b]pyridin-3-yl)-5-cyanopyrimidin-2-ylamino)-N-(2,2,2-trifluoroethyl)cyclohexanecarboxamide], for which the Ki lay within 3 to 40 nM.

Consider `CNS(=O)(=O)c1ccc([C@@H](C)Nc2ncc(C#N)c(-c3c[nH]c4ncc(C(F)(F)F)cc34)n2)cc1` [Compound I-200, 4-((1R)-1-(5-cyano-4-(5-(trifluoromethyl)-1H-pyrrolo[2,3-b]pyridin-3-yl)pyrimidin-2-ylamino)ethyl)-N-methylbenzenesulfonamide], for which the Ki is less than 3 nM.

For the compound `N#Cc1cnc(NCC2CCCCC2)nc1-c1c[nH]c2ncc(C(F)(F)F)cc12` [Compound I-29, 2-(cyclohexylmethylamino)-4-(5-(trifluoromethyl)-1H-pyrrolo[2,3-b]pyridin-3-yl)pyrimidine-5-carbonitrile], the Ki was in the range of 3 to 40 nM.

For the compound `CC(Nc1ncc(C#N)c(-c2c[nH]c3ncc(C(F)(F)F)cc23)n1)c1ccc(N2CCC(O)(C(C)C)CC2)nc1` (centres unmarked) [Compound I-198, 2-(1-(6-(4-hydroxy-4-isopropylpiperidin-1-yl)pyridin-3-yl)ethylamino)-4-(5-(trifluoromethyl)-1H-pyrrolo[2,3-b]pyridin-3-yl)pyrimidine-5-carbonitrile], the Ki lay within 3 to 40 nM.

For `N#Cc1cnc(N[C@@H]2CC[C@H](CO)C2)nc1-c1c[nH]c2ncc(C(F)(F)F)cc12` [Compound I-119, 2-((1R,3S)-3-(hydroxymethyl)cyclopentylamino)-4-(5-(trifluoromethyl)-1H-pyrrolo[2,3-b]pyridin-3-yl)pyrimidine-5-carbonitrile], the Ki is 3 to 40 nM.

`C[C@@H](Nc1ncc(C#N)c(-c2c[nH]c3ncc(C(F)(F)F)cc23)n1)[C@H]1CC[C@@H](NS(C)(=O)=O)CC1` (single isomer, unassigned) [Compound I-203]: the Ki was less than 3 nM.

As to `N#Cc1cnc(NCCN2CCOCC2)nc1-c1c[nH]c2ncc(C(F)(F)F)cc12` [Compound I-69, 2-(2-morpholinoethylamino)-4-(5-(trifluoromethyl)-1H-pyrrolo[2,3-b]pyridin-3-yl)pyrimidine-5-carbonitrile], the Ki was more than 40 nM.

`CC(C)(Nc1ncc(C#N)c(-c2c[nH]c3ncc(C(F)(F)F)cc23)n1)C(=O)NCC(F)(F)F` [IA-0, 2-(5-cyano-4-(5-(trifluoromethyl)-1H-pyrrolo[2,3-b]pyridin-3-yl)pyrimidin-2-ylamino)-2-methyl-N-(2,2,2-trifluoroethyl)propanamide]: the Ki was 3 to 40 nM.

`C[C@@H](Nc1ncc(C#N)c(-c2c[nH]c3ncc(C(F)(F)F)cc23)n1)C1CCCCC1` [Compound I-61, 2-((R)-1-cyclohexylethylamino)-4-(5-(trifluoromethyl)-1H-pyrrolo[2,3-b]pyridin-3-yl)pyrimidine-5-carbonitrile]: the Ki was less than 3 nM.

Consider `CC(C)Sc1ncc(C#N)c(-c2c[nH]c3ncc(C(F)(F)F)cc23)n1` [II-12, 2-(isopropylthio)-4-(5-(trifluoromethyl)-1H-pyrrolo[2,3-b]pyridin-3-yl)pyrimidine-5-carbonitrile], for which the Ki is more than 40 nM.

Consider `C[C@@H](Nc1ncc(C#N)c(-c2c[nH]c3ncc(C(F)(F)F)cc23)n1)c1cnc(O)nc1` [Compound I-302, 2-(I-1-(2-hydroxypyrimidin-5-yl)ethylamino)-4-(5-(trifluoromethyl)-1H-pyrrolo[2,3-b]pyridin-3-yl)pyrimidine-5-carbonitrile], for which the Ki was less than 3 nM.

Take `C[C@@H](Nc1ncc(C#N)c(-c2c[nH]c3ncc(C(F)(F)F)cc23)n1)[C@H]1CC[C@H](O)CC1` [Compound I-179, 2-((R)-1-((1r,4R)-4-hydroxycyclohexyl)ethylamino)-4-(5-(trifluoromethyl)-1H-pyrrolo[2,3-b]pyridin-3-yl)pyrimidine-5-carbonitrile]: the Ki is less than 3 nM.

Consider `C[C@H](O)C(=O)N1CCC([C@@H](C)Nc2ncc(C#N)c(-c3c[nH]c4ncc(C(F)(F)F)cc34)n2)CC1` [Compound I-228, 2-((R)-1-(1-((S)-2-hydroxypropanoyl)piperidin-4-yl)ethylamino)-4-(5-(trifluoromethyl)-1H-pyrrolo[2,3-b]pyridin-3-yl)pyrimidine-5-carbonitrile], for which the Ki is less than 3 nM.

As to `CCC(Nc1ncc(C#N)c(-c2c[nH]c3ncc(C(F)(F)F)cc23)n1)c1ccccc1` (centres unmarked) [Compound I-16, 2-(1-phenylpropylamino)-4-(5-(trifluoromethyl)-1H-pyrrolo[2,3-b]pyridin-3-yl)pyrimidine-5-carbonitrile], the Ki was in the range of 3 to 40 nM.

With `N#Cc1cnc(NCc2cccc(Cl)c2)nc1-c1c[nH]c2ncc(C(F)(F)F)cc12` [Compound I-13, 2-(3-chlorobenzylamino)-4-(5-(trifluoromethyl)-1H-pyrrolo[2,3-b]pyridin-3-yl)pyrimidine-5-carbonitrile], the Ki is more than 40 nM.

For `CC(C)(Nc1ncc(C#N)c(-c2c[nH]c3ncc(Cl)cc23)n1)C(=O)NCC(F)(F)F` [IA-11, 2-(4-(5-chloro-1H-pyrrolo[2,3-b]pyridin-3-yl)-5-cyanopyrimidin-2-ylamino)-2-methyl-N-(2,2,2-trifluoroethyl)propanamide], the Ki was 3 to 40 nM.

Consider `C[C@@H](Nc1ncc(C#N)c(-c2c[nH]c3ncc(C(F)(F)F)cc23)n1)c1cnc(N2CCN(C)CC2)nc1` [Compound I-299, 2-((R)-1-(2-(4-methylpiperazin-1-yl)pyrimidin-5-yl)ethylamino)-4-(5-(trifluoromethyl)-1H-pyrrolo[2,3-b]pyridin-3-yl)pyrimidine-5-carbonitrile], for which the Ki is less than 3 nM.

`CC(Nc1ncc(C#N)c(-c2c[nH]c3ncc(C(F)(F)F)cc23)n1)c1ccc(N2CC(F)(C3CC3)C2)nc1` (centres unmarked) [Compound I-191, 2-(1-(6-(3-cyclopropyl-3-fluoroazetidin-1-yl)pyridin-3-yl)ethylamino)-4-(5-(trifluoromethyl)-1H-pyrrolo[2,3-b]pyridin-3-yl)pyrimidine-5-carbonitrile]: the Ki was in the range of 3 to 40 nM.

Consider `CC(=O)N[C@H]1CC[C@H]([C@@H](C)Nc2ncc(C#N)c(-c3c[nH]c4ncc(C(F)(F)F)cc34)n2)CC1` [Compound I-208, N-((1R,4r)-4-((1R)-1-(5-cyano-4-(5-(trifluoromethyl)-1H-pyrrolo[2,3-b]pyridin-3-yl)pyrimidin-2-ylamino)ethyl)cyclohexyl)acetamide], for which the Ki was less than 3 nM.

Consider `N#Cc1cnc(Sc2ccccc2Br)nc1-c1c[nH]c2ncc(C(F)(F)F)cc12` [II-7, 2-(2-bromophenylthio)-4-(5-(trifluoromethyl)-1H-pyrrolo[2,3-b]pyridin-3-yl)pyrimidine-5-carbonitrile], for which the Ki is more than 40 nM.

Turning to `CN1CCC(Nc2ncc(C#N)c(-c3c[nH]c4ncc(C(F)(F)F)cc34)n2)CC1` [Compound I-63, 2-(1-methylpiperidin-4-ylamino)-4-(5-(trifluoromethyl)-1H-pyrrolo[2,3-b]pyridin-3-yl)pyrimidine-5-carbonitrile], the Ki lay within 3 to 40 nM.
